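Growth conditions: 96-well plates. Treatment: test compound, 48 hours, 5 concentrations. Analysis: linear interpolation between bracketing concentrations; unreached endpoints set to highest concentration. GI50 is the concentration that inhibits growth by half. TGI denotes the concentration required for complete inhibition of growth.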
Experiments:
Test in all cases: growth of human tumour cells (NCI), 48 h
EKVX NSCLC = system: EKVX NSCLC
SNB-19 CNS = system: SNB-19 CNS
MDA-MB-435 = system: MDA-MB-435
OVCAR-4 ovarian = system: OVCAR-4 ovarian
SF-539 CNS = system: SF-539 CNS
SK-MEL-28 melanoma = system: SK-MEL-28 melanoma
OVCAR-8 ovarian = system: OVCAR-8 ovarian
NCI-H23 lung = system: NCI-H23 lung
PC-3 prostate = system: PC-3 prostate
HT29 colon = system: HT29 colon

Compound	GI50 (EKVX NSCLC) [µM]	TGI (EKVX NSCLC) [µM]	GI50 (SNB-19 CNS) [µM]	TGI (SNB-19 CNS) [µM]	GI50 (MDA-MB-435) [µM]	TGI (MDA-MB-435) [µM]	GI50 (OVCAR-4 ovarian) [µM]	TGI (OVCAR-4 ovarian) [µM]	GI50 (SF-539 CNS) [µM]	TGI (SF-539 CNS) [µM]	GI50 (SK-MEL-28 melanoma) [µM]	TGI (SK-MEL-28 melanoma) [µM]	GI50 (OVCAR-8 ovarian) [µM]	TGI (OVCAR-8 ovarian) [µM]	GI50 (NCI-H23 lung) [µM]	TGI (NCI-H23 lung) [µM]	GI50 (PC-3 prostate) [µM]	TGI (PC-3 prostate) [µM]	GI50 (HT29 colon) [µM]	TGI (HT29 colon) [µM]
Oc1c(C(Nc2ccccc2Br)c2ccccc2)ccc2cccnc12 (centres undefined)	2.48	> 100	2.33	> 100	4	70.2	1.3	55	3.65	13.5	2.46	14.9	2.11	> 100	3.96	26.9	3.92	> 100	3.85	84.3
CN(C)c1ccc(Nc2c3ccccc3nc3ccccc23)cc1	1.4	6.35	1.63	9.32	0.685	2.33	1.26	5.44	1.72	8.33	1.36	2.84	0.868	3.25	1.1	2.92	1.34	5.41	0.53	2.34
COc1cc2c3c(n(CCCN)c(=O)c2cc1OC)-c1ccc([N+](=O)[O-])cc1C3=O	20	40.7	3.11	18.3	15.9	37.5	11.5	33.7	3.76	14.9	17.8	34.3	2	5.41	5.13	25.1	7.63	22.9	5.07	21.4
O=[N+]([O-])/C=C/c1c(Cl)cccc1Cl	–	16.9	–	12.1	–	4.62	–	11.4	–	5.12	–	10.9	–	4.13	–	16.8	–	5.58	–	26
C[C@H]1[C@H](C)N1CC(O)Cn1ccnc1[N+](=O)[O-] (some centres undefined)	–	> 100	–	> 100	–	> 100	–	> 100	–	> 100	–	> 100	–	> 100	–	> 100	–	> 100	–	> 100
O=[N+]([O-])c1cc[n+]([O-])c2ccccc12	1.22	3.98	0.374	2.91	0.436	1.31	1.78	3.17	0.181	0.541	1.24	2.64	0.33	2.12	0.328	1.56	0.222	2.36	0.246	1.09
[2H]C([2H])([2H])NC(=O)c1nnc(NC(=O)C2CC2)cc1Nc1cccc(-c2ncn(C)n2)c1OC	81.4	> 100	> 100	> 100	56.7	> 100	18.2	> 100	61.1	> 100	> 100	> 100	27.4	> 100	91.9	> 100	29.5	> 100	44.6	> 100
C=CC(=O)N1CCC(c2ccc(C(N)=O)c(-c3ccc(Oc4ccccc4)cc3)n2)CC1	21.5	> 100	47.9	> 100	29.1	> 100	21.6	> 100	40.3	> 100	51.5	> 100	30.9	> 100	34.6	> 100	29.5	> 100	46.7	> 100
c1ccc(-c2nn3c(c2-c2ccnc4cc(OCCN5CCOCC5)ccc24)CCC3)nc1	> 100	> 100	> 100	> 100	25.8	> 100	> 100	> 100	> 100	> 100	> 100	> 100	> 82.6	> 100	> 80.6	> 100	98.8	> 100	30.3	> 100
COc1ccc2c(c1)nc(NNC(=O)c1cnccn1)c1cccn12	0.161	3.7	0.381	10.3	0.338	2.59	0.114	2.3	0.393	2.6	0.444	3.52	0.229	3.05	0.64	5.24	0.285	4.85	0.354	–
CN(C)C(=O)Nc1nc2cc(Cl)c(Cl)cc2[nH]1	5.3	> 100	11.6	> 100	0.2	3.85	1.61	> 100	0.537	6.05	8.63	> 100	2.46	> 60.4	2.07	> 66.5	0.566	> 51.8	0.393	> 32.5

From PubChem BioAssay (NCI)
